Data as given in article PMC8149590, “Biochemical Characterization of a Novel Bacterial Laccase and Improvement of Its Efficiency by Directed Evolution on Dye Degradation” (Frontiers in Microbiology, 2021).

Test system: T1, rlac1338
T1 construct: gene lac1338; 1,338 bp gene (about 445 residues), codon-optimised, in pET-32a(+), E. coli BL21(DE3); His-tag fusion (18 kD vector tag), ~68 kD by SDS-PAGE
Test: initial rates by OD405, Lineweaver-Burk
Assay type: biochemical, uncultured bacterium
Settings: ± sign lost in table text
From the text: initial rates by OD405, Lineweaver-Burk on rlac1338

[1] = mutant lac2-9, optimal pH 6.5 and 60°C, printed base change T698A falls in codon 233, not 232

SMILES	Km [1] [µM]	Km (optimal pH 6.0 and 55°C) [µM]
COc1cccc(OC)c1O [2,6-DMP]	560 ± 3.7	654 ± 2.1
CCn1c(=NN=c2sc3cc(S(=O)(=O)O)ccc3n2CC)sc2cc(S(=O)(=O)O)ccc21 [ABTS, 2,2-azide-bis (3-ethylbenzothiazole-6-sulfonic acid)]	76 ± 1.8	210 ± 3.3
Oc1ccccc1O [Catecho]	570 ± 2.9	507 ± 2.5
Oc1cccc2ccccc12 [1-naphthol]	6040	5600
COc1ccccc1O [Guaiacol]	4300	4900
